# Like-named read-outs stand apart in the source and are kept apart here.
# Experiments:
# [1] = system: platelet aggregation (PAF); test: Inhibitory action on PAF-induced rabbit platelet aggregation; assay type: cell-based; conditions: Oryctolagus cuniculus, read-out: inhibitory percentage (platelet aggregation); for inhibition at 3 µM: 3 × 10^-6 M; for inhibition at 0.3 µM: 3 × 10^-7 M; for inhibition at 0.03 µM: 3 × 10^-8 M
# Procedure: Blood was collected directly from the hearts of male rabbits using a syringe containing, as an anticoagulant, 3.15% citric acid (one part to 9 parts of blood). The blood was subjected to centrifuge at 800 rpm for ten minutes at room temperature to obtain platelet rich plasma (PRP). The remaining blood was further subjected to centrifuge at 3000 rpm for ten minnutes to separate platelet poor plasma (PPP) as the supernatant. PRP was diluted with PPP, and the number of platelets was adjusted to about 500,000/ μl. This PRP(250 μl) was stirred for two minutes at 37° C., and there was added a test sample, and the mixture was stirred for further two minutes, followed by addition of PAF of a given concentration. Platelet aggregation was examined by means of a platelet-agglutometer (manufactured by Rika Denki). Platelet aggregation preventing action of the test sample was determined based on the maximum percent light transmission (maximum percent. agglutination).
# PAF-induced hypotension = test: Inhibitory action on PAF-induced hypotension in rats; assay type: in vivo, rat (Sprague-Dawley); conditions: Rattus norvegicus, read-out: Inhibitory Rate (Lowering of Blood Pressure); for inhibition in vivo at 0.01 mg/kg / inhibition in vivo at 0.03 mg/kg / inhibition in vivo at 0.1 mg/kg: iv; for inhibition in vivo at 3 mg/kg / inhibition in vivo at 10 mg/kg / inhibition in vivo at 30 mg/kg / inhibition in vivo at 1 mg/kg: oral
# Procedure: Sprague-Dawley male rats, each weighing about 250 g, were subjected to the experiment. The rats were cannulated on the side of femoral artery for measuring the blood pressure, and on the side of femoral vein for administering the drug. The blood pressure was measured through a pressure transducer and recorded. First, PAF (1 μg/kg) was administered intravenously (i.v.) to examine the extent of lowering of blood pressure. Then, the test samples were administered intravenously or orally. […]
# The inhibitory action on PAF-induced hypotension (% inhibition) is indicated as the ratio of blood pressure-lowering degree (Δ mmHg) induced by PAF after administration of test samples relative to blood pressure-lowering degree (Δ mmHg) induced by PAF before administration of test samples.
smiles,measurement,setting,value
"CCC[n+]1cc(Br)cc(C(=O)N(CCOC(=O)NCCOc2cccc3ccccc23)c2ccccc2)c1 [Production Example 7, 5-bromo-3-[N-[2-[2-(1-naphthyloxy)ethyl]carbamoyloxy]ethyl-N-phenyl]carbamoyl-1-propylpyridinium iodide]",inhibition at 3 µM,[1],100%
same,inhibition at 0.3 µM,[1],100%
same,inhibition at 0.03 µM,[1],18%
same,inhibition in vivo at 0.01 mg/kg,PAF-induced hypotension; 1 hr.,59%
same,inhibition in vivo at 0.01 mg/kg,PAF-induced hypotension; 2 hr.,48%
same,inhibition in vivo at 0.01 mg/kg,PAF-induced hypotension; 4 hr.,45%
same,inhibition in vivo at 0.01 mg/kg,PAF-induced hypotension; 6 hr.,40%
same,inhibition in vivo at 0.01 mg/kg,PAF-induced hypotension; 8 hr.,35%
same,inhibition in vivo at 0.03 mg/kg,PAF-induced hypotension; 1 hr.,84%
same,inhibition in vivo at 0.03 mg/kg,PAF-induced hypotension; 2 hr.,81%
same,inhibition in vivo at 0.03 mg/kg,PAF-induced hypotension; 4 hr.,68%
same,inhibition in vivo at 0.03 mg/kg,PAF-induced hypotension; 6 hr.,57%
same,inhibition in vivo at 0.03 mg/kg,PAF-induced hypotension; 8 hr.,51%
same,inhibition in vivo at 0.1 mg/kg,PAF-induced hypotension; 1 hr.,100%
same,inhibition in vivo at 0.1 mg/kg,PAF-induced hypotension; 2 hr.,91%
same,inhibition in vivo at 0.1 mg/kg,PAF-induced hypotension; 4 hr.,76%
same,inhibition in vivo at 0.1 mg/kg,PAF-induced hypotension; 6 hr.,63%
same,inhibition in vivo at 0.1 mg/kg,PAF-induced hypotension; 8 hr.,58%
same,inhibition in vivo at 0.01 mg/kg,"PAF-induced hypotension; 5 min, i.v., 5 min.",76%
same,inhibition in vivo at 0.03 mg/kg,"PAF-induced hypotension; 5 min, i.v., 5 min.",100%
same,inhibition in vivo at 0.1 mg/kg,"PAF-induced hypotension; 5 min, i.v., 5 min.",100%
same,inhibition in vivo at 3 mg/kg,PAF-induced hypotension; 1 hr.,36%
same,inhibition in vivo at 3 mg/kg,PAF-induced hypotension; 2 hr.,59%
same,inhibition in vivo at 3 mg/kg,PAF-induced hypotension; 4 hr.,63%
same,inhibition in vivo at 3 mg/kg,PAF-induced hypotension; 6 hr.,59%
same,inhibition in vivo at 3 mg/kg,PAF-induced hypotension; 8 hr.,41%
same,inhibition in vivo at 10 mg/kg,PAF-induced hypotension; 1 hr.,100%
same,inhibition in vivo at 10 mg/kg,PAF-induced hypotension; 2 hr.,97%
same,inhibition in vivo at 10 mg/kg,PAF-induced hypotension; 4 hr.,92%
same,inhibition in vivo at 10 mg/kg,PAF-induced hypotension; 6 hr.,84%
same,inhibition in vivo at 10 mg/kg,PAF-induced hypotension; 8 hr.,78%
same,inhibition in vivo at 30 mg/kg,PAF-induced hypotension; 1 hr.,100%
same,inhibition in vivo at 30 mg/kg,PAF-induced hypotension; 2 hr.,100%
same,inhibition in vivo at 30 mg/kg,PAF-induced hypotension; 4 hr.,97%
same,inhibition in vivo at 30 mg/kg,PAF-induced hypotension; 6 hr.,89%
same,inhibition in vivo at 30 mg/kg,PAF-induced hypotension; 8 hr.,86%
"CCC[n+]1cc(Br)cc(C(=O)N(CCOC(=O)NCCOC(=O)Nc2cccc3ccccc23)c2cccc(Cl)c2)c1 [Production Example 44, 5-bromo-3-[N-(3-chlorophenyl)-N-[2-[2-(1-naphthylcarbamoyloxy)ethyl]carbamoyloxy]ethyl]carbamoyl-1-propylpyridinium chloride]",inhibition at 3 µM,[1],100%
same,inhibition at 0.3 µM,[1],100%
same,inhibition at 0.03 µM,[1],27%
same,inhibition in vivo at 0.01 mg/kg,PAF-induced hypotension; 1 hr.,58%
same,inhibition in vivo at 0.01 mg/kg,PAF-induced hypotension; 2 hr.,54%
same,inhibition in vivo at 0.01 mg/kg,PAF-induced hypotension; 4 hr.,47%
same,inhibition in vivo at 0.01 mg/kg,PAF-induced hypotension; 6 hr.,41%
same,inhibition in vivo at 0.03 mg/kg,PAF-induced hypotension; 1 hr.,81%
same,inhibition in vivo at 0.03 mg/kg,PAF-induced hypotension; 2 hr.,71%
same,inhibition in vivo at 0.03 mg/kg,PAF-induced hypotension; 4 hr.,64%
same,inhibition in vivo at 0.03 mg/kg,PAF-induced hypotension; 6 hr.,59%
same,inhibition in vivo at 0.03 mg/kg,PAF-induced hypotension; 8 hr.,39%
same,inhibition in vivo at 0.01 mg/kg,"PAF-induced hypotension; 5 min, i.v., 5 min.",68%
same,inhibition in vivo at 0.03 mg/kg,"PAF-induced hypotension; 5 min, i.v., 5 min.",97%
same,inhibition in vivo at 1 mg/kg,PAF-induced hypotension; 1 hr.,62%
same,inhibition in vivo at 1 mg/kg,PAF-induced hypotension; 2 hr.,74%
same,inhibition in vivo at 1 mg/kg,PAF-induced hypotension; 4 hr.,73%
same,inhibition in vivo at 1 mg/kg,PAF-induced hypotension; 6 hr.,68%
same,inhibition in vivo at 1 mg/kg,PAF-induced hypotension; 8 hr.,61%
same,inhibition in vivo at 3 mg/kg,PAF-induced hypotension; 1 hr.,77%
same,inhibition in vivo at 3 mg/kg,PAF-induced hypotension; 2 hr.,84%
same,inhibition in vivo at 3 mg/kg,PAF-induced hypotension; 4 hr.,97%
same,inhibition in vivo at 3 mg/kg,PAF-induced hypotension; 6 hr.,94%
same,inhibition in vivo at 3 mg/kg,PAF-induced hypotension; 8 hr.,92%
"CCC[n+]1cc(Br)cc(C(=O)N(CCOC(=O)NCCCOC(=O)Nc2cccc3ccccc23)c2ccccc2)c1 [Production Example 52, 5-bromo-3-[N-2-[3-(1-naphthylcarbamoyloxy)propyl]carbamoyloxy]ethyl-N-phenyl]carbamoyl-1-propyl pyridinium chloride]",inhibition at 3 µM,[1],100%
same,inhibition at 0.3 µM,[1],100%
same,inhibition at 0.03 µM,[1],27%
same,inhibition in vivo at 1 mg/kg,PAF-induced hypotension; 1 hr.,30%
same,inhibition in vivo at 1 mg/kg,PAF-induced hypotension; 2 hr.,47%
same,inhibition in vivo at 1 mg/kg,PAF-induced hypotension; 4 hr.,37%
same,inhibition in vivo at 1 mg/kg,PAF-induced hypotension; 6 hr.,51%
same,inhibition in vivo at 1 mg/kg,PAF-induced hypotension; 8 hr.,31%
same,inhibition in vivo at 3 mg/kg,PAF-induced hypotension; 1 hr.,87%
same,inhibition in vivo at 3 mg/kg,PAF-induced hypotension; 2 hr.,92%
same,inhibition in vivo at 3 mg/kg,PAF-induced hypotension; 4 hr.,89%
same,inhibition in vivo at 3 mg/kg,PAF-induced hypotension; 6 hr.,88%
same,inhibition in vivo at 3 mg/kg,PAF-induced hypotension; 8 hr.,81%
same,inhibition in vivo at 10 mg/kg,PAF-induced hypotension; 1 hr.,92%
same,inhibition in vivo at 10 mg/kg,PAF-induced hypotension; 2 hr.,95%
same,inhibition in vivo at 10 mg/kg,PAF-induced hypotension; 4 hr.,98%
same,inhibition in vivo at 10 mg/kg,PAF-induced hypotension; 6 hr.,96%
same,inhibition in vivo at 10 mg/kg,PAF-induced hypotension; 8 hr.,95%
"CCC[n+]1cc(Br)cc(C(=O)N(CCOC(=O)NCCOC(=O)N2CCc3ccccc3C2)c2ccccc2)c1 [Production Example 77, 5-Bromo-3-[N-[2-[[2-(1,2,3,4-tetrahydroisoquinolyl)carbonyloxy]ethyl]carbamoyloxy]ethyl-N-phenyl]carbamoyl-1-propylpyridinium chloride]",inhibition at 3 µM,[1],100%
same,inhibition at 0.3 µM,[1],100%
same,inhibition at 0.03 µM,[1],51%
same,inhibition in vivo at 0.03 mg/kg,PAF-induced hypotension; 1 hr.,100%
same,inhibition in vivo at 0.03 mg/kg,PAF-induced hypotension; 2 hr.,97%
same,inhibition in vivo at 0.03 mg/kg,PAF-induced hypotension; 4 hr.,62%
same,inhibition in vivo at 0.03 mg/kg,PAF-induced hypotension; 6 hr.,46%
same,inhibition in vivo at 0.03 mg/kg,PAF-induced hypotension; 8 hr.,33%
same,inhibition in vivo at 0.03 mg/kg,"PAF-induced hypotension; 5 min, i.v., 5 min.",100%
same,inhibition in vivo at 1 mg/kg,PAF-induced hypotension; 1 hr.,56%
same,inhibition in vivo at 1 mg/kg,PAF-induced hypotension; 2 hr.,64%
same,inhibition in vivo at 1 mg/kg,PAF-induced hypotension; 4 hr.,72%
same,inhibition in vivo at 1 mg/kg,PAF-induced hypotension; 6 hr.,66%
same,inhibition in vivo at 1 mg/kg,PAF-induced hypotension; 8 hr.,59%
same,inhibition in vivo at 3 mg/kg,PAF-induced hypotension; 1 hr.,89%
same,inhibition in vivo at 3 mg/kg,PAF-induced hypotension; 2 hr.,100%
same,inhibition in vivo at 3 mg/kg,PAF-induced hypotension; 4 hr.,99%
same,inhibition in vivo at 3 mg/kg,PAF-induced hypotension; 6 hr.,99%
same,inhibition in vivo at 3 mg/kg,PAF-induced hypotension; 8 hr.,97%
